Like-named read-outs stand apart in the source and are kept apart here.
Experiments:
[1] = target: T1, human α1B‐adrenoceptor (Homo sapiens, UniProt P35368); assay: ERK1/2‐phosphorylation (Surefire Alphascreen), CHO‐α1B cells; type: cell-based; details: CHO‐α1B cells, for bi‐phasic responses the initial stimulatory part
T1 construct: expressed in transfected cells; host or cells: CHO-K1
T1 sequence (P35368 1-520): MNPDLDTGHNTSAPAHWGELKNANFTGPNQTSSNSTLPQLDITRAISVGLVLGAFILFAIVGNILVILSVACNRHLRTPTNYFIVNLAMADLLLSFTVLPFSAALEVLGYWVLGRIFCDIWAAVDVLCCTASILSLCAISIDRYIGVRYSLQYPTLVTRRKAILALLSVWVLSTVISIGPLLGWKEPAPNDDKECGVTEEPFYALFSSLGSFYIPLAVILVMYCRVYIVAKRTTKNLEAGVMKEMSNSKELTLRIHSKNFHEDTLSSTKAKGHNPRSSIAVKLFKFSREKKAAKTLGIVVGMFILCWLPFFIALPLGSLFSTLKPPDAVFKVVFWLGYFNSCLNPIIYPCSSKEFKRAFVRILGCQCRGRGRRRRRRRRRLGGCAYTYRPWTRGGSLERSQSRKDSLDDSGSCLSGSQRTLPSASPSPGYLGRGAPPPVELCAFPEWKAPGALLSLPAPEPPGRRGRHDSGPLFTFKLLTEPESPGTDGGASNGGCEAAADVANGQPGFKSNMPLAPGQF

[2] = target: T2, human α1D‐adrenoceptor (full length) (Homo sapiens, UniProt P25100); assay: ^3H‐cAMP accumulation, CHO‐α1D cells; type: cell-based; details: cAMP accumulation without forskolin
T2 construct: human α1D‐adrenoceptor (full length) were used; expressed in transfected cells; host or cells: CHO-K1
T2 sequence (P25100 1-572): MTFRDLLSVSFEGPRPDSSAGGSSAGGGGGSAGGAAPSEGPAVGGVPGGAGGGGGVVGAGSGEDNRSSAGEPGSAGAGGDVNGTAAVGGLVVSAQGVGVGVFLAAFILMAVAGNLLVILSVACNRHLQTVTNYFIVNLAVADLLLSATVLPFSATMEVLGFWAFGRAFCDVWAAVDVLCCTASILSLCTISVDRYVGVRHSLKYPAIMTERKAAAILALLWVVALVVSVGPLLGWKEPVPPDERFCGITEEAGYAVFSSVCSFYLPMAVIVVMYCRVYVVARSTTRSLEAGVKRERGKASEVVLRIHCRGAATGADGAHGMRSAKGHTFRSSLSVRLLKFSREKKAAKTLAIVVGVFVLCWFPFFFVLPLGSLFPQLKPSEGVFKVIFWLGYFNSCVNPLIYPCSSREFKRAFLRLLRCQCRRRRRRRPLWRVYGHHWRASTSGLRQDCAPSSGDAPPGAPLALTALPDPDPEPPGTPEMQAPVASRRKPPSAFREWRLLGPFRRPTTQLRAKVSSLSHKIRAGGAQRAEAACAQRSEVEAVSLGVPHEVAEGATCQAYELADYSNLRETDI

[3] = target: T2, human α1D‐adrenoceptor (full length); assay: ^3H‐prazosin whole‐cell radioligand binding, CHO‐α1D cells
[4] = target: T3, human α1A‐adrenoceptor (Homo sapiens, UniProt P35348); assay: ^3H‐cAMP accumulation in the presence of 10 μM forskolin, CHO‐α1A cells; type: cell-based; details: CHO‐α1A cells
T3 construct: expressed in transfected cells; host or cells: CHO-K1
T3 sequence (P35348 1-466): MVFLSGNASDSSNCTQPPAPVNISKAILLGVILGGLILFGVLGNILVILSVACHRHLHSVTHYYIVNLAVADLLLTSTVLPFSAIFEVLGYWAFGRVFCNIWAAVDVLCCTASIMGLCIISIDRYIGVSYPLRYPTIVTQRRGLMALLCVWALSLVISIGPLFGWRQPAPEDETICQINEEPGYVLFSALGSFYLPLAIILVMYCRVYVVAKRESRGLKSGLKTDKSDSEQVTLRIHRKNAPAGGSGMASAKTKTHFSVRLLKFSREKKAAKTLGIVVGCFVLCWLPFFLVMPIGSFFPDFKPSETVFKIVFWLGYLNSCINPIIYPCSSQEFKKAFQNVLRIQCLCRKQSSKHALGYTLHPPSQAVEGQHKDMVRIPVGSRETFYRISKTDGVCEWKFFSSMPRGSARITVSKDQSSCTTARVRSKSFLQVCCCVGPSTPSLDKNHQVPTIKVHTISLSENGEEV

[5] = target: T1, human α1B‐adrenoceptor; assay: Intracellular free calcium mobilization, CHO‐α1B cells; type: cell-based; details: CHO‐α1B cells
[6] = target: T3, human α1A‐adrenoceptor; assay: ^3H‐prazosin whole‐cell radioligand binding, CHO‐α1A cells
[7] = target: T1, human α1B‐adrenoceptor; assay: ^3H‐prazosin whole‐cell radioligand binding, CHO‐α1B cells; details: CHO‐α1B cells
[8] = target: T3, human α1A‐adrenoceptor; assay: ^3H‐cAMP accumulation, CHO‐α1A cells; type: cell-based; details: CHO‐α1A cells; for cAMP accumulation % forskolin: % of 10 µM forskolin response
[9] = target: T1, human α1B‐adrenoceptor; assay: ^3H‐cAMP accumulation in the presence of 10 μM forskolin, CHO‐α1B cells; type: cell-based; details: CHO‐α1B cells
[10] = target: T2, human α1D‐adrenoceptor (full length); assay: Intracellular free calcium mobilization, CHO‐α1D cells; type: cell-based
[11] = target: T2, human α1D‐adrenoceptor (full length); assay: ERK1/2‐phosphorylation (Surefire Alphascreen), CHO‐α1D cells; type: cell-based
[12] = target: T2, human α1D‐adrenoceptor (full length); assay: ^3H‐cAMP accumulation in the presence of 10 μM forskolin, CHO‐α1D cells; type: cell-based; details: CHO‐α1D cells; for cAMP (in presence of forskolin) Log EC50: log values given negative
[13] = target: T1, human α1B‐adrenoceptor; assay: ^3H‐cAMP accumulation, CHO‐α1B cells; type: cell-based; details: CHO‐α1B cells
[14] = target: T3, human α1A‐adrenoceptor; assay: ERK1/2‐phosphorylation (Surefire Alphascreen), CHO‐α1A cells; type: cell-based
[15] = target: T3, human α1A‐adrenoceptor; assay: Intracellular free calcium mobilization, CHO‐α1A cells; type: cell-based
[16] = tested on: parental CHO cell line without any transfected receptors; assay: Intracellular calcium mobilization, parent CHO cells without transfected receptors; type: cell-based, Chinese hamster; details: Cricetulus griseus; CHO cells without transfected receptors; response at maximum concentration used (c2), as % of ionomycin (10μM) response; mean ± s.e.m.; read-out: Intracellular calcium release % ionomycin
[17] = tested on: parental CHO cell line without any transfected receptors; assay: Forskolin‐stimulated cAMP accumulation, parent CHO cells without transfected receptors; type: cell-based, Chinese hamster; details: CHO cells without transfected receptors; in presence of forskolin
[18] = tested on: parental CHO cell line without any transfected receptors; assay: ERK1/2‐phosphorylation, parent CHO cells without transfected receptors; type: cell-based, Chinese hamster; details: Cricetulus griseus, CHO; read-out: ERK1/2-phosphorylation % PDBu at 100μM
[19] = fold increase of the forskolin response
[20] = CHO‐α1D cells, log values given negative

In the case of `CCc1cccc(CC)c1NC1=NCCN1` [ST‐91], the “ERK1/2‐phosphorylation Log EC50” value [1] is reported as −7.33 ± 0.12, the “ERK1/2‐phosphorylation % PDBu” value ([1]; maximal response as % PDBu response) is reported as 83.6 ± 8.9% and the “cAMP Log EC50” value [2] is reported as “No response”. For the same compound, the “3H‐prazosin binding Log KD” value ([3]; CHO‐α1D cells, whole‐cell binding (from Table 1), log values given negative) was −5.24, the “Log KD α1D, ^3H‐prazosin whole cell binding” value ([3]; CHO‐α1D cells, given as log KD (negative), mean ± SEM, 'early plateau' = specific binding not fully inhibited) was −5.24 ± 0.09 and the “Affinity selectivity ratio α1B vs α1D” value ([3]; higher affinity for α1D than α1B) was 7.1 fold. The “cAMP accumulation (in presence of forskolin) Log EC50” value ([4]; 10 μM forskolin) was −7.86 ± 0.14, the “cAMP accumulation (in presence of forskolin) Fold increase” value [4, 19] was 2.17 ±.10 fold and the “Intracellular calcium release Log EC50” value ([5]; given as log EC50 (negative numbers)) was −8.13 ± 0.17. The “Log efficacy ratio KD /EC50” value ([5]; intrinsic efficacy ratio, KD from binding / EC50 calcium, log) was 3.74, the “Intracellular calcium release % ionomycin” value ([5]; maximal response as % of 10 µM ionomycin response) was 62.0 ± 2.1% and the “Log KD α1A, ^3H‐prazosin whole cell binding” value ([6]; CHO‐α1A cells, given as log KD (negative), mean ± SEM) was −5.94 ± 0.01. The “Affinity selectivity ratio α1A vs α1B” value ([6]; higher affinity for α1A than α1B) was 35.5 fold, the “Affinity selectivity ratio α1A vs α1D” value ([6]; higher affinity for α1A than α1D) was 5.0 fold and the “Log KD, ^3H‐prazosin binding” value ([7]; whole‐cell binding (from Table 1), given as log KD (negative numbers)) was −4.39. For the same compound, the “Log KD α1B, ^3H‐prazosin whole cell binding” value ([7]; given as log KD (negative), mean ± SEM) was −4.39 ± 0.04, the “cAMP accumulation Log EC50” value ([8]; 5 h) was −6.80 ± 0.05 and the “cAMP accumulation % forskolin” value [8] was 108.2 ± 12.5%. For the same compound, the “cAMP accumulation (in presence of forskolin) Fold increase” value [9, 19] was 2.34 ± 0.09 fold, the “cAMP accumulation (in presence of forskolin) Log EC50” value ([9]; in presence of forskolin) was −7.23 ± 0.07 and the “Log efficacy ratio KD /EC50” value ([10]; CHO‐α1D cells, intrinsic efficacy ratio, binding KD / calcium EC50) was 1.10. For the same compound, the “Intracellular calcium release Log EC50” value [10, 20] was −6.34 ± 0.15, the “Intracellular calcium release % ionomycin” value ([10]; CHO‐α1D cells, maximal response as % of 10 µM ionomycin) was 6.3 ± 1.6% and the “ERK1/2‐phosphorylation Log EC50” value [11, 20] was −5.23 ± 0.21. The “ERK1/2‐phosphorylation % PDBu” value ([11]; CHO‐α1D cells, maximal response as % of PDBu) was 21.1 ± 4.4%, the “cAMP (in presence of forskolin) Fold increase” value [12, 19] was “No response” and the “cAMP (in presence of forskolin) Log EC50” value [12] was “No response”. For the same compound, the “cAMP accumulation Log EC50” value [13] was −6.52 ± 0.04, the “cAMP accumulation % forskolin” value ([13]; % forskolin maximum response) was 30.4 ± 3.5% and the “ERK1/2‐phosphorylation Log EC50” value ([14]; CHO‐α1A cells, 2–4 min, ^a bi‐phasic: initial stimulatory part, ^b also active in parent CHO cells) was −8.70 ± 0.06. For the same compound, the “ERK1/2‐phosphorylation % PDBu” value ([14]; CHO‐α1A cells, % of 10 µM PDBu, ^a bi‐phasic: initial stimulatory part) was 79.5 ± 5.2%, the “Log efficacy ratio KD /EC50” value ([15]; CHO‐α1A cells, binding KD and calcium EC50) was 3.14 and the “Intracellular calcium release Log EC50” value ([15]; CHO‐α1A cells, given as log EC50 (negative)) was −9.08 ± 0.11. The “Intracellular calcium release % ionomycin” value ([15]; CHO‐α1A cells, maximal response as % of 10 µM ionomycin) was 64.6 ± 2.6%.
`N=C(N)N/N=C/c1c(Cl)cccc1Cl` [Guanabenz] was tested, and the Emax [16] was 23.5 ± 7.4%, the “cAMP Log EC50” value [2] was “No response” and the “cAMP accumulation (in presence of forskolin) Log EC50” value [17] was “No response”. For the same compound, the Emax at 100 µM [18] was 8.5 ± 3.1%, the Kd ([3]; 3H‐prazosin binding Log KD, CHO‐α1D cells, whole‐cell binding (from Table 1), log values given negative) was 955 nM and the Kd ([3]; Log KD α1D, ^3H‐prazosin whole cell binding, CHO‐α1D cells, given as log KD (negative), mean ± SEM, 'early plateau' = specific binding not fully inhibited) was 955 nM. It also gave an EC50 ([4]; 10 μM forskolin, read-out: cAMP accumulation (in presence of forskolin) Log EC50 (converted)) of 145 nM, a Kd ([6]; Log KD α1A, ^3H‐prazosin whole cell binding, CHO‐α1A cells, given as log KD (negative), mean ± SEM) of 331 nM and an EC50 ([8]; 5 h, read-out: cAMP accumulation Log EC50 (converted)) of 1820 nM. For the same compound, the “cAMP accumulation % forskolin” value [8] was 2.1 ± 0.3%, the “Intracellular calcium release % Ionomycin at 100 µM” value [10] was 20.2 ± 5.1% and the “ERK1/2‐phosphorylation % PDBu at 100 µM” value [11] was 20.8 ± 6.6%. The “cAMP (in presence of forskolin) Log EC50” value [12] was “No response”, the “ERK1/2‐phosphorylation % PDBu” value [14] was 68.4 ± 8.6% and the EC50 ([14]; CHO‐α1A cells, 2–4 min, ^a bi‐phasic: initial stimulatory part, ^b also active in parent CHO cells, read-out: ERK1/2‐phosphorylation Log EC50 (converted)) was 204 nM. For the same compound, the “Intracellular calcium release % ionomycin” value [15] was 17.8 ± 3.2% and the EC50 ([15]; CHO‐α1A cells, given as log EC50 (negative), read-out: Intracellular calcium release Log EC50 (converted)) was 110 nM.
